Results published in ChEMBL document CHEMBL1201862, “PubChem BioAssay data set” (2004).
Active and inactive are the calls of the source.

Experiments:
[1] = molecular target: T1, Heat shock factor protein 1 (Mus musculus, UniProt P38532); assay: enhancement of HSF1-driven luciferase signal – cell-based, NIH3T3, luminescence, dose retest, confirmation (AID 435004); type: functional;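 also: stress induced by proteasome inhibitor MG132 added 30 min after compound; luciferase reporter driven by HSF1 response element in NIH3T3 cells; actives raise luminescence as potentiators of the MG132 stress response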
T1 sequence (P38532 whole entry): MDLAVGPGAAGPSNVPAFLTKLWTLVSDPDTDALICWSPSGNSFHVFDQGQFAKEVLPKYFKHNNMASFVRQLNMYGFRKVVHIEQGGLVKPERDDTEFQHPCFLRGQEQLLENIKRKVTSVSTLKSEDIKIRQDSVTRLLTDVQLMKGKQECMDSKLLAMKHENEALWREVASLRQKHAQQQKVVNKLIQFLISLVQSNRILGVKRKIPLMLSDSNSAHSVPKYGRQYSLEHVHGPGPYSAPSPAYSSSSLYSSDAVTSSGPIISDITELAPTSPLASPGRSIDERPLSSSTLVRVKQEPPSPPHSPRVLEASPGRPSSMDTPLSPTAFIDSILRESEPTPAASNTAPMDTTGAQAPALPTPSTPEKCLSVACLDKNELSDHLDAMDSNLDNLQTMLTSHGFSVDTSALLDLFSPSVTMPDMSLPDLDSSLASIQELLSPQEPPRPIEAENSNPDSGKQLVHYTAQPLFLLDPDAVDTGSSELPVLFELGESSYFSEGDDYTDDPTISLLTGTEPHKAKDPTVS

[2] = molecular target: T2, Neuropeptide Y receptor type 1 (Homo sapiens, UniProt P25929); assay: Fluorescence-based counterscreen for agonists of NPY-Y2: cell-based high-throughput dose response assay for agonists of NPY-Y1.; type: functional
T2 sequence (P25929 whole entry): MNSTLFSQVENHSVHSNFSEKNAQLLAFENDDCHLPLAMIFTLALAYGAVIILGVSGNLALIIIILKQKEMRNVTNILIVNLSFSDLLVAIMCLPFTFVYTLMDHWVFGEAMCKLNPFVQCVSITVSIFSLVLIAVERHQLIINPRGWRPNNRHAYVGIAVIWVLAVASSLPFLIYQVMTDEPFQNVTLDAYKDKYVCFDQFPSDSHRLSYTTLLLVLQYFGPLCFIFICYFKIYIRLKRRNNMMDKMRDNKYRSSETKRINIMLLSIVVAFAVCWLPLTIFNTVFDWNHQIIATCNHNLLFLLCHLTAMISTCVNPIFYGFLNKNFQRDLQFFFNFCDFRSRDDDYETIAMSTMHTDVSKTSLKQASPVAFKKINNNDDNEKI

[3] = molecular target: T3, Neuropeptide Y receptor type 2 (Homo sapiens, UniProt P49146); assay: Fluorescence-based cell-based high-throughput dose response assay for agonists of NPY-Y2. [Related pubchem assays: 1703 (Screening assay (CNGC inhibitors).), 1359 (Screening assay (NPY-Y2 potentiators or agonists).), 1304 (Screening assay (NPY-Y1 potentiators or agonists).), 1710 (Screening assay (NPY-Y2 agonists).), 1791 (Summary AID.)]; type: functional
T3 sequence (P49146 whole entry): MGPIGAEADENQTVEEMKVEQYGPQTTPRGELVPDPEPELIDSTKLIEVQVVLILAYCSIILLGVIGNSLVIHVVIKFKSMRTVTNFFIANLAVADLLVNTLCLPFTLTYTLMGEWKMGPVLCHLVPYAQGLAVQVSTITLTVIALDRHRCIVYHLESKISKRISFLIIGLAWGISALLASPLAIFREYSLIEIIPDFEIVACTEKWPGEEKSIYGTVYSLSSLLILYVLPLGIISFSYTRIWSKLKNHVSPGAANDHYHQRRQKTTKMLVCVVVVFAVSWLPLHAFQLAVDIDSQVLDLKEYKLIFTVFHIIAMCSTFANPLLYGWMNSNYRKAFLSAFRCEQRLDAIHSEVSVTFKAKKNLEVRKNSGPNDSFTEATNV

HEK293 [4] = assay: Fluorescence-based counterscreen for potentiators or agonists of NPY-Y2: cell-based high-throughput dose response assay to identify inhibitors of cyclic nucleotide gated ion channel (CNGC) activity. In this assay, the parental HEK293 cell line transfected with a cyclic-nucleotide gated ion channel (CNGC)-based cAMP sensor is used to measure inhibition of isoproterenol-induced CNGC activity by test compound.; type: functional; settings: Homo sapiens
HEK293 [5] = assay: cells; type: functional, cell-based; settings: Homo sapiens
[6] = molecular target: Nucleotide-binding oligomerization domain-containing protein 2 (Homo sapiens, UniProt Q9HC29); assay: inhibition of NOD2-driven NF-kB reporter – cell-based, luminescence, uHTS, HEK293 (AID 1566); type: functional
Sequence of Nucleotide-binding oligomerization domain-containing protein 2 (Q9HC29 whole entry, the tested form may be a part): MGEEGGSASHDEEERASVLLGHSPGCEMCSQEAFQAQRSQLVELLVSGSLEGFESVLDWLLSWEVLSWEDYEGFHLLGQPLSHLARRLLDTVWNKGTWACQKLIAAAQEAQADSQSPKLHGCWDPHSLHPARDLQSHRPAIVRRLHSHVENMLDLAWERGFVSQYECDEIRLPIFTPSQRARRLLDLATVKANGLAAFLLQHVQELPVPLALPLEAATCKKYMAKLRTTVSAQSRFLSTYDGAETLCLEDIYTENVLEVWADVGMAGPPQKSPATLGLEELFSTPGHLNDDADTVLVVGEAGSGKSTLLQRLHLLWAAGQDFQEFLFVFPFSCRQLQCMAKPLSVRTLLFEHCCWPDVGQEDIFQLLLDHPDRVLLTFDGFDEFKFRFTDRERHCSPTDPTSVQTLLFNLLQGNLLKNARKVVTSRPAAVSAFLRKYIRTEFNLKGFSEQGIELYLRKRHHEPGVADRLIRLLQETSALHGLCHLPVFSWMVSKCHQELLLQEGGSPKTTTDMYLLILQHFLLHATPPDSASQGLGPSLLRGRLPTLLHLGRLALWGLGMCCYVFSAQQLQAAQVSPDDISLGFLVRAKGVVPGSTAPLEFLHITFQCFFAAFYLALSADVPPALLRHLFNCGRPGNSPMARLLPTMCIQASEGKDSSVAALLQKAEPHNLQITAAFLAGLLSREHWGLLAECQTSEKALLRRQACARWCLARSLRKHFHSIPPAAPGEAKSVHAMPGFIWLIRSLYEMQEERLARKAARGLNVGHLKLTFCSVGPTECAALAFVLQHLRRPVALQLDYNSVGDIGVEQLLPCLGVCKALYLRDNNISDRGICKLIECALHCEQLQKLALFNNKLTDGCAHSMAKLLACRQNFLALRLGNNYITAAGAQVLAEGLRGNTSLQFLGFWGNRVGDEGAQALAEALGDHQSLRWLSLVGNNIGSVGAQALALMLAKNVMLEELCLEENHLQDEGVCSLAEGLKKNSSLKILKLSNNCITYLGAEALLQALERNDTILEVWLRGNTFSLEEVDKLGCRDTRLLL

HEK293 [7] = assay: cells; type: functional, cell-based; settings: Homo sapiens; remark: listed apart in the source
[8] = molecular target: Voltage-dependent T-type calcium channel subunit alpha-1H (Homo sapiens, UniProt O95180); type: functional;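 also: channel activity triggered by adding a high calcium stimulation buffer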
Sequence of Voltage-dependent T-type calcium channel subunit alpha-1H (O95180 whole entry): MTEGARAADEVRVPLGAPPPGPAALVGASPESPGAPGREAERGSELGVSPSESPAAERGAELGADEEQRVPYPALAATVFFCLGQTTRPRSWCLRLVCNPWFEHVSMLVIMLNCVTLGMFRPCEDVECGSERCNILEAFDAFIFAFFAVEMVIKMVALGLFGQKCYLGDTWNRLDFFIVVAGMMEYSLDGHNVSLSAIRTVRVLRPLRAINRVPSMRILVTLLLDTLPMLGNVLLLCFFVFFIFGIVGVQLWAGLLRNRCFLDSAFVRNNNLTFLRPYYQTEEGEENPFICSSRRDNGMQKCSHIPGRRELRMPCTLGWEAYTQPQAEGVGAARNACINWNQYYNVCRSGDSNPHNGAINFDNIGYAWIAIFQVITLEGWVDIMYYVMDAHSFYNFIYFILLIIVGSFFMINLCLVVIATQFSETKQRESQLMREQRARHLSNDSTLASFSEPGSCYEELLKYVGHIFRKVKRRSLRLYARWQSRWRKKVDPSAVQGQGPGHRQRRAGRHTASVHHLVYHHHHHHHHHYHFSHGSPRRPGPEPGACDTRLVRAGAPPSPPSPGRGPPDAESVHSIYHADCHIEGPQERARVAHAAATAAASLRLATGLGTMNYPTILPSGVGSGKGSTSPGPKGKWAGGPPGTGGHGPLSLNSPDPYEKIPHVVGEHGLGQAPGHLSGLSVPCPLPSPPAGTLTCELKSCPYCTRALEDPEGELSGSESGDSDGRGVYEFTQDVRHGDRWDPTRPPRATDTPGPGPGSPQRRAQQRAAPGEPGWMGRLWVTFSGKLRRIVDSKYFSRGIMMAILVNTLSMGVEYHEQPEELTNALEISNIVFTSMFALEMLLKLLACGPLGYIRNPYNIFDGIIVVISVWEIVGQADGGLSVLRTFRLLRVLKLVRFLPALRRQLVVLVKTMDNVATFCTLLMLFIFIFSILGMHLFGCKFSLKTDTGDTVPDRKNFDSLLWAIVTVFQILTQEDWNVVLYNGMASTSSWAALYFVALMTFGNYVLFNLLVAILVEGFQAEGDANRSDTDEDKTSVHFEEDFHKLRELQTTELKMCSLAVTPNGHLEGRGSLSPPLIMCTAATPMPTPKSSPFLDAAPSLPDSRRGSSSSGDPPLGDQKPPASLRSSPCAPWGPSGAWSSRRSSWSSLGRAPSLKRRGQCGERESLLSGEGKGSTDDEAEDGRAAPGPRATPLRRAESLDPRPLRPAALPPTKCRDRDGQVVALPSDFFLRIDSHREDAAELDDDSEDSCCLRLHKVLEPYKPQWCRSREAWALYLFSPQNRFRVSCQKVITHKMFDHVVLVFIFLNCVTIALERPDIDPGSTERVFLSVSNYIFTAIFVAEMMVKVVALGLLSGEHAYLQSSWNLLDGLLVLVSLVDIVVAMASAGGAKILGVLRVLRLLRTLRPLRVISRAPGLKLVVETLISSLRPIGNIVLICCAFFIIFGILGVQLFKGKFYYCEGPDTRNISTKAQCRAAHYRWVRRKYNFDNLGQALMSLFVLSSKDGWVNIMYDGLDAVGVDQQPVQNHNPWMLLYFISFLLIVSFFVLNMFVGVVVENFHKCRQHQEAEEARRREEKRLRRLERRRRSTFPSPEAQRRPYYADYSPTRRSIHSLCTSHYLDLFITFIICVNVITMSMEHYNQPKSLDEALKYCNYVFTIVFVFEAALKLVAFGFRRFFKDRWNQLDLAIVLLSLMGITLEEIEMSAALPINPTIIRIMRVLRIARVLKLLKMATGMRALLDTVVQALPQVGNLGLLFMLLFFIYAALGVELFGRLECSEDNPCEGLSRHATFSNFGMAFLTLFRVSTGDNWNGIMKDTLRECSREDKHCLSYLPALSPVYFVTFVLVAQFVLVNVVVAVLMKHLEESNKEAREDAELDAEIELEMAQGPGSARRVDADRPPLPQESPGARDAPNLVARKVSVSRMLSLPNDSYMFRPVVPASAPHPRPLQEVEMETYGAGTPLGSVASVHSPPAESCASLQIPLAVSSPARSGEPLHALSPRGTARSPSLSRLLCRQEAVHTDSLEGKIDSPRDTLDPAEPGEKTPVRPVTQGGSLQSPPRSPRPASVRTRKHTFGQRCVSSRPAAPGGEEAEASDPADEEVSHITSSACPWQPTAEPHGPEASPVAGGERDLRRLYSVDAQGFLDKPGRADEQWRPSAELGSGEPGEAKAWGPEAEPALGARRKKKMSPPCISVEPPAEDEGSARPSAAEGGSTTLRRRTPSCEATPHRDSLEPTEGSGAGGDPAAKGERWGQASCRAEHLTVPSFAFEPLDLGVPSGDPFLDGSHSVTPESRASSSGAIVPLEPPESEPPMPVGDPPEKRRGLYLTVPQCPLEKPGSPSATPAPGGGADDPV

HEK293 [9] = assay: NOD2 signaling inhibitors in MDP-stimulated cells, cell-based, uHTS, luminescence (AID 2001); type: functional; settings: Homo sapiens
HEK293 [10] = assay: inhibition of NOD1-driven NF-kB reporter – cell-based, luminescence, uHTS, primary screen (AID 1578); type: functional; settings: Homo sapiens
HEK293 [11] = assay: cells; type: functional, cell-based; settings: Homo sapiens; remark: listed apart in the source
[12] = molecular target: DNA dC->dU-editing enzyme APOBEC-3G (Homo sapiens, UniProt Q9HC16); assay: Dose Response confirmation of small molecule APOBEC3G DNA Deaminase Inhibitors via a fluorescence-based single-stranded DNA deaminase assay. [Related pubchem assays (depositor defined):AID493012, AID493028]; type: functional
Sequence of DNA dC->dU-editing enzyme APOBEC-3G (Q9HC16 whole entry): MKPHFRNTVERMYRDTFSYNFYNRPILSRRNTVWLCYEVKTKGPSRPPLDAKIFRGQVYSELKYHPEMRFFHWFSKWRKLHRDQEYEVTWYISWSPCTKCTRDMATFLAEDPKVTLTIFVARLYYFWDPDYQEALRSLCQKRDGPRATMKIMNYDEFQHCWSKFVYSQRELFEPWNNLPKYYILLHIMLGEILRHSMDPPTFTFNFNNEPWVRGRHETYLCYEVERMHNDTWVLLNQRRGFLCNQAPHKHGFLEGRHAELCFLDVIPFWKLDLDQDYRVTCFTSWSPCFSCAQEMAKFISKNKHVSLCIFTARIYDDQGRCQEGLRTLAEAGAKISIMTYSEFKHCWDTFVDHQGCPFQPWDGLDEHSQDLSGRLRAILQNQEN

[13] = molecular target: DNA dC->dU-editing enzyme APOBEC-3A (Homo sapiens, UniProt P31941); assay: A3A deaminase inhibition for selectivity – biochemical, dose response (AID 504722); type: functional
Sequence of DNA dC->dU-editing enzyme APOBEC-3A (P31941 whole entry): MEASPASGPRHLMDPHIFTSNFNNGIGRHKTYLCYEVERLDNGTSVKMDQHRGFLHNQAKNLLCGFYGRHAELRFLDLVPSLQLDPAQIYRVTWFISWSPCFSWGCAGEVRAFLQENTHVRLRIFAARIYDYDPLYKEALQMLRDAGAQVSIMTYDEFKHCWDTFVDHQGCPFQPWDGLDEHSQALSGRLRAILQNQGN

[14] = molecular target: T4, Replicative DNA helicase DnaB (Mycobacterium tuberculosis, UniProt P9WMR3); assay: DnaB intein splicing inhibitors, dose response, biochemical, cell-free fluorescence (AID 449749); type: functional
T4 sequence (P9WMR3 whole entry): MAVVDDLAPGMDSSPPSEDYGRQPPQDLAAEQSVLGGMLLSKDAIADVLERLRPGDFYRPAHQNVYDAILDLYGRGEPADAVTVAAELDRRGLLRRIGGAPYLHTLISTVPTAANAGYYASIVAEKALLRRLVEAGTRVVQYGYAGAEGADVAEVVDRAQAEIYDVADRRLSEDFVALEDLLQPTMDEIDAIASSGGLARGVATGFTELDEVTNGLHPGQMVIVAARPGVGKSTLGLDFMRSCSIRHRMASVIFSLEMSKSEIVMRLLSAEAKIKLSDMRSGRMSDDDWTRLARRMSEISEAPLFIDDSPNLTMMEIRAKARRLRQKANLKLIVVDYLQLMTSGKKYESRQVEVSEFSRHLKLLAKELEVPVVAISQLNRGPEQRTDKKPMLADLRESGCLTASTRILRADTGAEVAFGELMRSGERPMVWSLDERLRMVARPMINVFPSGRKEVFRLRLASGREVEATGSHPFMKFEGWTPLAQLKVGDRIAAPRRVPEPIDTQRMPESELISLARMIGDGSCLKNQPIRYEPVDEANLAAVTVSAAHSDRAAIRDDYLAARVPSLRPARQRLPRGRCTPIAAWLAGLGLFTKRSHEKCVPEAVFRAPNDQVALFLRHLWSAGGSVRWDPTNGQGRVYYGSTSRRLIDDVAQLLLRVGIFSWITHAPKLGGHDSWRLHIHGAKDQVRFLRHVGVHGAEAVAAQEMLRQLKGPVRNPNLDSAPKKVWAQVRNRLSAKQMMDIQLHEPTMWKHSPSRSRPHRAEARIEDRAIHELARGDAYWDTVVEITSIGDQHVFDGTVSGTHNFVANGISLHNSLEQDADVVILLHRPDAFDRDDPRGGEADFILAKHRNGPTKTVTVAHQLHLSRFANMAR

BJ [15] = assay: BJ-TERT-LT-ST fibroblast viability loss – cell-based, RAS-independent, luminescence, dose response (AID 1935); type: functional; settings: Homo sapiens;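 also: BJ fibroblasts immortalized with TERT plus LT and ST oncogenes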
BJ [16] = assay: BJ-TERT fibroblast viability loss – cell-based, RAS-independent, luminescence, dose response (AID 1933); type: functional; settings: Homo sapiens
[17] = DRD fibroblast viability loss – cell-based, non-viral oncogenic, luminescence, dose response (AID 1934); type: functional; settings: Homo sapiens
Protein RecA = molecular target: T5, Protein RecA (Mycobacterium tuberculosis, UniProt P9WHJ3); assay: Fluorescence Cell-Free Homogeneous Dose Retest to Identify Inhibitors of RecA-Intein Splicing Activity. [Related pubchem assays (depositor defined):AID2097, AID2223, AID489010, AID492950]; type: functional
T5 sequence (P9WHJ3 whole entry): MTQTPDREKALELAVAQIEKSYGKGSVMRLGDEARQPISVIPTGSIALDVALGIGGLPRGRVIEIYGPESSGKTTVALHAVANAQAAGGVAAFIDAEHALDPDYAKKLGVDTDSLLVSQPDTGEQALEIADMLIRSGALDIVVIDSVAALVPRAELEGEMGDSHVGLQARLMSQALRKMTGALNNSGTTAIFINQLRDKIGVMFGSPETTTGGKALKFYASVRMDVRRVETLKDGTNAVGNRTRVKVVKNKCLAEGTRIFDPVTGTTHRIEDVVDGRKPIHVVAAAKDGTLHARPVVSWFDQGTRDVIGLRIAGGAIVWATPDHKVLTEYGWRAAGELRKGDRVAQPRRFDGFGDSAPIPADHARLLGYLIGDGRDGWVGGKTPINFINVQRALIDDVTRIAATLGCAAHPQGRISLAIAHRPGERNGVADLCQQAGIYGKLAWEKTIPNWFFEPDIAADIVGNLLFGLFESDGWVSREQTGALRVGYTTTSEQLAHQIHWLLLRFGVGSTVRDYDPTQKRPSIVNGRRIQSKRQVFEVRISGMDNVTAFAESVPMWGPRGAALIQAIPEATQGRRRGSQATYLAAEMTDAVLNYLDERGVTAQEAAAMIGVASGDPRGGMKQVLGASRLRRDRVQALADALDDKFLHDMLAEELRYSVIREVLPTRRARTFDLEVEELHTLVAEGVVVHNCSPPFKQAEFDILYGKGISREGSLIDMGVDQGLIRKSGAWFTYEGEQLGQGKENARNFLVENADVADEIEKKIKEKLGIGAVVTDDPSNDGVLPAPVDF

[18] = Intein inhibitors as potential Tuberculosis drugs, a cytotoxicity screen. [Related pubchem assays (depositor defined):AID2221, AID2223, AID434968, AID435010, AID449749, AID449750, AID489010]; type: functional
[19] = general cell-killing toxicity readout – plate reader, dry powder samples, cytotoxicity control for PAX8 inhibitor project, dose response (AID 743021); type: functional, cell-based
BJ [20] = assay: cells; type: functional, cell-based; settings: Homo sapiens
Paired box protein Pax-8 = Paired box protein Pax-8 (Homo sapiens, UniProt Q06710); assay: PAX8 transcriptional activity inhibition in RMG-I – RMG-I cells, luciferase, cherry-pick, dose response (AID 687027); type: functional, cell-based;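 also: luciferase reporter driven by Pax8 target thyroperoxidase promoter measured by SteadyGlo luminescence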
Sequence of Paired box protein Pax-8 (Q06710 whole entry): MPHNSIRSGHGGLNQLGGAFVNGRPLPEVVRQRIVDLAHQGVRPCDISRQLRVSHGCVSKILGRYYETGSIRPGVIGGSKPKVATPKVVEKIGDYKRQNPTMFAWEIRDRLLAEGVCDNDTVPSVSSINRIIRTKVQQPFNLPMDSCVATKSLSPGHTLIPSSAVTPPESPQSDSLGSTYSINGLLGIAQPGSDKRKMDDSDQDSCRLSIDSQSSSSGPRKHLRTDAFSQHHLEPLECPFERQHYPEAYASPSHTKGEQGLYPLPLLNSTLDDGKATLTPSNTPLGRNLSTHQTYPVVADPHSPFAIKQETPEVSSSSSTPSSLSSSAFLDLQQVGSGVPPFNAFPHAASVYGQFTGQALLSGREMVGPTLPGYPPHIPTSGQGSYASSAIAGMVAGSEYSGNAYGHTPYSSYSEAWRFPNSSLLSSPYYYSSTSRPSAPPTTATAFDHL
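For CC50 in this document: cells exposed to compound for 72 hours before luminescence readout.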

Structure (SMILES): O=C(c1ccc(F)cc1F)C1CCN(c2ccc([N+](=O)[O-])cn2)CC1
- EC50 [1]: > 260 µM (inactive)
- EC50 [2]: > 35.4 µM (not active)
- EC50 [3]: 27.5 µM (not active)
- EC50 (HEK293 [4]): > 35.4 µM (not active)

Structure (SMILES): Cc1nc2ccccc2c2oc(C(=O)NCC3COc4ccccc4O3)cc12 (configuration not stated)
- IC50 (HEK293 [5]): 4.14 µM (active)
- EC50 [6]: 4.75 µM (active)
- IC50 (HEK293 [7]): > 20 µM (inactive)
- EC50 [8]: 7.77 µM (active)
- IC50 (HEK293 [9]): 3.93 µM (inactive)
- EC50 (HEK293 [10]): 4.69 µM (active)
- IC50 (HEK293 [11]): 8.6 µM (active)

Structure (SMILES): N#Cc1c(-c2ccncc2)c2c([nH]c1=S)CCCC2
- IC50 [12]: 2.21 µM (active)
- IC50 [13]: > 100 µM (inactive)

Structure (SMILES): CC(=O)n1cc(N(C(=O)CCl)c2ccccc2)c2ccccc21
- AC50 [14]: 2.3 µM (active)
- EC50 (BJ [15]): 5.99 µM (active)
- EC50 (BJ [16]): 0.654 µM (inconclusive)
- EC50 [17]: 0.912 µM (active)
- EC50 (Protein RecA): 0.347 µM (active)
- CC50 [18]: 1.16 µM (active)
- AC50 [19]: 4.84 µM (active)
- EC50 (BJ [20]): 1.51 µM (inconclusive)
- AC50 (Paired box protein Pax-8): 1.34 µM (active)
